In patent publication US7417052B2, “Phenylene derivative having tetrazole ring or thiazolidinedione ring” (Sankyo Company, Limited, priority 2003, dated 2008):

tested on: pentosidine (AGEs) formation in serum of kidney failure patients; assay: AGEs formation inhibitory effect (pentosidine production in serum protein, HPLC); assay type: biochemical, human; settings: test compound final concentration 5 mM, incubated at 37° C. for one week, proportion to pentosidine production amount by control
Experimental: AGEs Formation Inhibitory Effect
A solution (50 μl) of the test compound (final concentration 5 mM) in dimethyl sulfoxide was added to a protein (450 μl, serum of kidney failure patients who gave informed consent), and the mixture was incubated at 37° C. for one week. Pentosidine, which is one of the AGEs produced, was measured as follows. To separate pentosidine produced in the protein, 10% trichloroacetic acid (50 μl) was added to the sample after the reaction (50 μl) and the mixture was centrifuged and the precipitated protein was recovered. The recovered protein was washed with 300 μl of 5% trichloroacetic acid, dried and hydrolyzed with 6N hydrochloric acid (100 μl) at 110° C. for 16 hrs. The amount (nmol/l) of pentosidine produced was measured by HPLC (ODS C18, 4.6×250 mm, 335 nm, 385 nm) using a fluorescence detector by the gradient of 30 min., 1.0 ml/min with 0.1% trifluoroacetic acid added distilled water/0.08% trifluoroacetic acid added 80% acetonitrile as a mobile phase (Miyata, T et al.: J. Am. Soc. Nephrol., 7, 1198-1206, 1996, and Miyata, T. et al.: Proc. Natl. Acad. Sci. USA, 93 2353-2358, 1996).
To study AGEs formation inhibitory effect, the proportion of the aforementioned pentosidine production amount to the pentosidine production amount by control was calculated as pentosidine production rate (%).

| SMILES | pentosidine production rate (%) |
| --- | --- |
| CCCCC(=O)N(Cc1ccc(-c2ccccc2-c2nnn[nH]2)cc1)c1cccc(C(=O)O)c1 [Example 1, 3-[N-[[4-[2-(1H-tetrazol-5-yl)phenyl]phenyl]methyl]-N-pentanoylamino]benzoic acid] | 18.1% |
| CC(=O)N(Cc1ccc(-c2ccccc2-c2nnn[nH]2)cc1)c1cccc(C(=O)O)c1 [Example 2, 3-[N-[[4-[2-(1H-tetrazol-5-yl)phenyl]phenyl]methyl]-N-acetylamino]benzoic acid] | 26.1% |
| CCC(=O)N(Cc1ccc(-c2ccccc2-c2nnn[nH]2)cc1)c1cccc(C(=O)O)c1 [Example 3, 3-[N-[[4-[2-(1H-tetrazol-5-yl)phenyl]phenyl]methyl]-N-propanoylamino]benzoic acid] | 21.3% |
| CCCC(=O)N(Cc1ccc(-c2ccccc2-c2nnn[nH]2)cc1)c1cccc(C(=O)O)c1 [Example 4, 3-[N-[[4-[2-(1H-tetrazol-5-yl)phenyl]phenyl]methyl]-N-butanoylamino]benzoic acid] | 17.4% |
| CCCCCCCC(=O)N(Cc1ccc(-c2ccccc2-c2nnn[nH]2)cc1)c1cccc(C(=O)O)c1 [Example 5, 3-[N-[[4-[2-(1H-tetrazol-5-yl)phenyl]phenyl]methyl]-N-octanoylamino]benzoic acid] | 9.33% |
| CCCCC(=O)N(Cc1ccc(-c2ccccc2-c2nnn[nH]2)cc1)c1cccc(C(=O)OCc2oc(=O)oc2C)c1 [Example 6, (5-methyl-2-oxo-1,3-dioxolen-4-yl)methyl3-[N-[[4-[2-(1H-tetrazol-5-yl)phenyl]phenyl]methyl]-N-pentanoylamino]benzoate] | 16.8% |
| CCCCC(=O)N(Cc1ccc(-c2nnn[nH]2)cc1)c1cccc(C(=O)O)c1 [Example 7, 3-[N-[[4-(1H-tetrazol-5-yl)phenyl]methyl]-N-pentanoylamino]benzoic acid] | 27.2% |
| CCCCC(=O)N(Cc1ccc(-c2ccccc2-c2nnn[nH]2)cc1)c1ccccc1C(=O)O [Example 8, 2-[N-[[4-[2-(1H-tetrazol-5-yl)phenyl]phenyl]methyl]-N-pentanoylamino]benzoic acid] | 23.5% |
| CCCCC(=O)N(Cc1ccc(-c2ccccc2-c2nnn[nH]2)cc1)c1ccc(C(=O)O)cc1 [Example 9, 4-[N-[[4-[2-(1H-tetrazol-5-yl)phenyl]phenyl]methyl]-N-pentanoylamino]benzoic acid] | 30.8% |
| CCCC1Cc2ccc(C(=O)O)cc2N(Cc2ccc(-c3ccccc3-c3nnn[nH]3)cc2)C1=O (stereo not shown) [Example 10, 2-oxo-3-propyl-1-[[4-[2-(1H-tetrazol-5-yl)phenyl]phenyl]methyl]-1,3,4-trihydroquinoline-7-carboxylic acid] | 18.0% |
| CCCC1Cc2cc(C(=O)O)ccc2N(Cc2ccc(-c3ccccc3-c3nnn[nH]3)cc2)C1=O (stereo not shown) [Example 11, 2-oxo-3-propyl-1-[[4-[2-(1H-tetrazol-5-yl)phenyl]phenyl]methyl]-1,3,4-trihydroquinoline-6-carboxylic acid] | 24.9% |
| CCCC1Cc2ccc(C(=O)OCc3oc(=O)oc3C)cc2N(Cc2ccc(-c3ccccc3-c3nnn[nH]3)cc2)C1=O (stereo not shown) [Example 12, (5-methyl-2-oxo-1,3-dioxolen-4-yl)methyl2-oxo-3-propyl-1-[[4-[2-(1H-tetrazol-5-yl)phenyl]phenyl]methyl]-1,3,4-trihydroquinoline-7-carboxylate] | 29.0% |
| O=C1CCc2ccccc2N1Cc1ccc(-c2ccccc2-c2nnn[nH]2)cc1 [Example 13, 1-[[4-[2-(1H-tetrazol-5-yl)phenyl]phenyl]methyl]-1,3,4-trihydroquinolin-2-one] | 45.4% |
| CCCC1Oc2ccc(C(=O)O)cc2N(Cc2ccc(-c3ccccc3-c3nnn[nH]3)cc2)C1=O (stereo not shown) [Example 14, 3-oxo-2-propyl-4-[[4-[2-(1H-tetrazol-5-yl)phenyl]phenyl]methyl]-2H-benzo[e]1,4-oxazine-6-carboxylic acid] | 22.1% |
| CCCC1Oc2ccc(C(=O)O)cc2N(Cc2ccc(-c3nnn[nH]3)cc2)C1=O (stereo not shown) [Example 15, 3-oxo-2-propyl-4-[4-[4-(1H-tetrazol-5-yl)phenyl]methyl]2-H-benzo[e]1,4-oxazine-6-carboxylic acid] | 23.8% |
| CCCC1Sc2ccc(C(=O)O)cc2N(Cc2ccc(-c3ccccc3-c3nnn[nH]3)cc2)C1=O (stereo not shown) [Example 16, 3-oxo-2-propyl-4-[[4-[2-(1H-tetrazol-5-yl)phenyl]phenyl]methyl]-2H-benzo[e]1,4-thiazine-6-carboxylic acid] | 25.8% |
| CCCC1Sc2ccc(C(=O)O)cc2N(Cc2ccc(-c3nnn[nH]3)cc2)C1=O (stereo not shown) [Example 17, 3-oxo-2-propyl-4-[[4-(1H-tetrazol-5-yl)phenyl]methyl]2-H-benzo[e]1,4-thiazine-6-carboxylic acid] | 35.0% |
| CCc1nc2c(C)cc(C)nc2n1Cc1ccc(C2SC(=O)NC2=O)cc1 (stereo not shown) [Example 18, 5-[4-[(2-ethyl-5,7-dimethylimidazo[4,5-b]pyridin-3-yl)methyl]phenyl]-1,3-thiazolidine-2,4-dione] | 18.0% |
| CCCc1nc2c(C)cc(C)nc2n1Cc1ccc(C2SC(=O)NC2=O)cc1 (stereo not shown) [Example 19, 5-[4-[(5,7-dimethyl-2-propylimidazo[4,5-b]pyridin-3-yl)methyl]phenyl]-1,3-thiazolidine-2,4-dione] | 23.8% |
| CCCCC(=O)N(Cc1ccc(C2SC(=O)NC2=O)cc1)c1cccc(C(=O)O)c1 (stereo not shown) [Example 22, 3-[N-[4-(2,4-dioxothiazolidin-5-yl)benzyl]-N-pentanoylamino]benzoic acid] | 12.4% |

tested on: not given; assay: not given; settings: not given

| melting point | SMILES |
| --- | --- |
| 197 to 198 °C | CCCC1Oc2ccc(C(=O)O)cc2N(Cc2ccc(-c3ccccc3-c3nnn[nH]3)cc2)C1=O (stereo not shown) [Example 14, 3-oxo-2-propyl-4-[[4-[2-(1H-tetrazol-5-yl)phenyl]phenyl]methyl]-2H-benzo[e]1,4-oxazine-6-carboxylic acid] |
| 221 to 222 °C | CCc1nc2c(C)cc(C)nc2n1Cc1ccc(C2SC(=O)NC2=O)cc1 (stereo not shown) [Example 18, 5-[4-[(2-ethyl-5,7-dimethylimidazo[4,5-b]pyridin-3-yl)methyl]phenyl]-1,3-thiazolidine-2,4-dione] |
